Consider 17 compounds from patent publication EP1914236A1 (Ortho-McNeil Pharmaceutical, Inc., priority 2002, dated 2003).

The target in the experiment is T1, human B2 bradykinin receptors (Homo sapiens, UniProt P30411).
T1 construct: purchased Receptor Biology, Inc. (Baltimore, MD); host or cells: CHO-K1 cells transfected with the human B2 receptor (membranes)
T1 sequence (P30411 1-391): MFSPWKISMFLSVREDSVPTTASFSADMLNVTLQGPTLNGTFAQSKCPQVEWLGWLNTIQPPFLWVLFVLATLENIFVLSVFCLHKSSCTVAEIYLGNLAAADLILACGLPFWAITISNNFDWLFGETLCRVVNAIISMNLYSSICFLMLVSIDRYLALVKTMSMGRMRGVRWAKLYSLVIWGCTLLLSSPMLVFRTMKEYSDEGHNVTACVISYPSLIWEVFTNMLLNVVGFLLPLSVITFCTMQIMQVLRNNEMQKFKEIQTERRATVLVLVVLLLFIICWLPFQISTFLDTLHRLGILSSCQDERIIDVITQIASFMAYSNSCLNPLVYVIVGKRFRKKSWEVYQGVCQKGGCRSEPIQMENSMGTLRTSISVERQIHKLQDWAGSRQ
The experiment in a line: Bradykinin B2 (BK2) Receptor Binding Assay. The note with it: membranes of CHO-K1 cells transfected with human B2 bradykinin receptors; ~0.25 nM [3H]NPC17731; 60 min at 25°C. The protocol:
Cell membranes of CHO-K1 cells transfected with human B2 bradykinin receptors (CH)-hB2) were purchased from Receptor Biology, Inc. (Baltimore,MD).
Samples were harvested on a Brandel Cell Harvester on to Wallac filtermat B sheets (96 sample format), and washed three times with 2 mL cold HEPES-buffer (10 mM, pH 7.5), and dried in a microwave oven.
The data were used to calculate either the % inhibition compared to control binding (when only a single concentration of test compound was evaluated) or a Ki value (when a range of concentrations were tested). Background was subtracted from mean cpm values and % inhibition was calculated as: [(total dpm-test compound dpm)/(total dpm-nonspecific dpm)]x100. Kd and Ki values were calculated using GraphPad PRISM data analysis program.
Regarding “2-(5-Benzoyl-thiophen-2-yl)-N-[2,4-dimethyl-3-(2-methyl-quinolin-8-yloxymethyl)-phenyl]-N-methyl-acetamide [Compound 108]”, the Ki was 0.09 µM.
The value for `Cc1ccc2cccc(OCc3c(Cl)ccc(N(C)C(=O)Cc4cc(C(=O)c5ccc(S(C)(=O)=O)cc5)cn4C)c3Cl)c2n1` [Compound 1, N-[2,4-Dichloro-3-(2-methyl-quinolin-8-yloxymethyl)-phenyl]-2-[4-(4-methanesulfonyl-benzoyl)-1-methyl-1 H-pyrrol-2-yl]-N-methyl-acetamide] was 2.91 µM.
The value for `COc1ccc(C(=O)c2cc(CC(=O)N(C)c3ccc(Cl)c(COc4cccc5ccc(C)nc45)c3Cl)n(C)c2)cc1` [Compound 2, N-[2,4-Dichloro-3-(2-methyl-quinolin-8-yloxymethyl)-phenyl]-2-[4-(4-methoxybenzoyl)-1-methyl-1 H-pyrrol-2-yl]-N-methyl-acetamide] was 0.518 µM.
`CCn1cc(CC(=O)N(C)c2ccc(Cl)c(COc3cccc4ccc(C)nc34)c2Cl)cc1C(=O)c1ccc(C#N)cc1` [Compound 3, 2-[5-(4-Cyano-benzoyl)-1-ethyl-1H-pyrrol-3-yl]-N-[2,4-dichloro-3-(2-methyl-quinolin-8-yloxymethyl)phenyl]-N-methyl-acetamide] returned a Ki of 0.532 µM.
The value for `Cc1ccc2cccc(OCc3c(Cl)ccc(N(C)C(=O)Cc4ccc(C(=O)c5ccc(C#N)cc5)[nH]4)c3Cl)c2n1` [Compound 6, 2-[5-(4-Cyano-benzoyl)-1 H-pyrrol-2-yl]-N-[2,4-dichloro-3-(2-methyl-quinolin-8-yloxymethyl)-phenyl]-N-methyl-acetamide] was 0.041 µM.
Under `CCCN(C(=O)Cc1ccc(C(=O)c2ccc(C#N)cc2)n1C)c1ccc(Cl)c(COc2cccc3ccc(C)nc23)c1Cl` [Compound 19, 2-[5-(4-Cyano-benzoyl)-1-methyl-1H-pyrrol-2-yl]-N-[2,4-dichloro-3-(2-methyl-quinolin-8-yloxymethyl)-phenyl]-N-propyl-acetamide] stands 3.89 µM.
In turn, `C=CCN(C(=O)Cc1ccc(C(=O)c2ccc(C#N)cc2)n1C)c1ccc(Cl)c(COc2cccc3ccc(C)nc23)c1Cl` [Compound 21] had a Ki of 0.514 µM.
The value for `CCCCCC(=O)c1ccc(CC(=O)N(C)c2ccc(Cl)c(COc3cccc4ccc(C)nc34)c2Cl)n1C` [Compound 23, N-[2,4-Dichloro-3-(2-methyl-quinolin-8-yloxymethyl)-phenyl]-2-(5-hexanoyl-1-methyl-1H-pyrrol-2-yl)-N-methyl-acetamide] was 5.43 µM; that for `Cc1ccc2cccc(OCc3c(Cl)ccc(N(C)C(=O)Cc4ccc(C(=O)CN(C)c5ccccc5)n4C)c3Cl)c2n1` [Compound 24] was 5.35 µM; that for `Cc1ccc2cccc(OCc3c(Cl)ccc(N(C)C(=O)Cc4ccc(C(=O)c5ccc(Cl)s5)n4C)c3Cl)c2n1` [Compound 25] was 4.18 µM.
The value for `Cc1ccc2cccc(OCc3c(Cl)ccc(N(C)C(=O)Cc4ccc(C(=O)c5ccc6ccccc6c5)n4C)c3Cl)c2n1` [Compound 26] was 4.05 µM.
The value for `Cc1ccc2cccc(OCc3c(Cl)ccc(N(C)C(=O)Cc4ccc(C(=O)C=Cc5ccccc5)n4C)c3Cl)c2n1` [Compound 27] was 3.8 µM.
As to `Cc1ccc2cccc(OCc3c(Cl)ccc(N(C)C(=O)Cc4ccc(C(=O)Cc5ccccc5)n4C)c3Cl)c2n1` [Compound 28], the Ki came to 2.37 µM.
The value for `Cc1ccc2cccc(OCc3c(Cl)ccc(N(C)C(=O)Cc4ccc(C(=O)c5ccccc5)n4C)c3Cl)c2n1` [Compound 29] was 2.29 µM; that for `Cc1ccc2cccc(OCc3c(Cl)ccc(N(C)C(=O)Cc4ccc(C(=O)C5CCCCC5)n4C)c3Cl)c2n1` [Compound 30] was 1.79 µM; that for `Cc1ccc2cccc(OCc3c(Cl)ccc(N(C)C(=O)Cc4ccc(C(=O)C(C)(C)C)n4C)c3Cl)c2n1` [Compound 31] was 1.71 µM.
The value for `Cc1ccc2cccc(OCc3c(Cl)ccc(N(C)C(=O)Cc4ccc(C(=O)C5CC5)n4C)c3Cl)c2n1` [Compound 32] was 1.53 µM.
